US8969312B2, “Low side effect pharmaceutical composition containing antituberculosis drugs” (priority 2011, dated 2015)

What was measured:
[1] = system: Male SD (Sprague-Dawley) rats; experiment: Rat study of PZA combined with BNPP (AST, ALT, histology, GSP); assay type: in vivo
Protocol: (§1) The body weight of the rats was monitored throughout the experiment. Rats were anesthetized with sodium pentobarbital intraperitoneally (i.p.) at the dose of 50 mg/kg and galactose was injected intravenously through a polyethylene catheter positioned in internal jugular vein. The catheter was positioned by cut-down technique and its end was embedded under the skin behind the neck. After the surgery, the rats were fasted overnight during the recovery period (about 16 hours) with unrestricted water access.
Animals were randomized into one of five groups, each involving three treatments. The first treatment involved either a BNPP injection of 50 mg/kg or a BNPP vehicle (VEH1) injection (saline). […] The second treatment involved injections of either 500 mg/kg PZA or PZA vehicle (VEH2, saline). PZA was dissolved in saline and i.p. injected at a volume of […]. The first treatment (BNPP or VEH1) was administered 15 minutes before the […].
2. PZA group (PZA, n=10): continuously injections of PZA, VEH1 and VEH2 intraperitoneally once every day for 49 days;
3. BNPP-PZA group (BNPP-PZA, n=10): continuously injections of BNPP, PZA and VEH2 intraperitoneally once every day for 49 days;
(§2) After the rats were sacrificed, the livers were subjected to histology analysis.
All rats were subjected to GSP tests.

[2] = molecular target: human liver microsomal cytochrome P450 2E1 (CYP2E1) (Homo sapiens, UniProt P05181); experiment: Human liver microsomal CYP2E1, chlorzoxazone 6-hydroxylation;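 also: chlorzoxazone added as substrate, 6-hydroxychlorzoxazone formation quantified by LC/MS/MS after 30 min at 37 °C with NADP+ regenerating system, compared against solvent control without test sample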
Chain of human liver microsomal cytochrome P450 2E1 (CYP2E1) (P05181 whole entry): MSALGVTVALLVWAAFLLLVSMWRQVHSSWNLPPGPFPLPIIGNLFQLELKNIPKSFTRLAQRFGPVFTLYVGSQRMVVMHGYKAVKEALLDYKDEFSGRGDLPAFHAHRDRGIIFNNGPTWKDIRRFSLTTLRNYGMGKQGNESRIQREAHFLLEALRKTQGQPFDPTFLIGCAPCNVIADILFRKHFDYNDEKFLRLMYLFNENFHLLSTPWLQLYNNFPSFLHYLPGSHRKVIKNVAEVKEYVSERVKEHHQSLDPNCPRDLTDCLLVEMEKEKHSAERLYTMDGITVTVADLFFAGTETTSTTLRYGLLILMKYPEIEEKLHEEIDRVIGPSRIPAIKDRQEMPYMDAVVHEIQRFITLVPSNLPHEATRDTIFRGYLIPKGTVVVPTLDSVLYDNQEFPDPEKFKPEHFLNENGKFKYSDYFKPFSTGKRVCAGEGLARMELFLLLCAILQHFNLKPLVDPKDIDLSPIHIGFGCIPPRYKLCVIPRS
Protocol: (§3) Microsomes prepared from human liver were used to extract cytochrome P450 2E1 (CYP2E1) and CYP2E1 inhibitors were screened from 39 Chinese medicine guiding drugs and 10 excipients. Chlorzoxazone hydroxylation is a reaction catalyzed primarily by CYP2E1 in liver. The extracted human liver microsomal cytochrome P450 2E1 (CYP2E1) was mixed with its substrate, Chlorzoxazone, and test sample was then added Inhibition of CYP2E1 activity was calculated by measuring CYP2E1 standard metabolite, 6-OH-CZX (6-Hydroxy-Chlorzoxazone), and compared with control 6-OH-CZX.
(§4) After incubation, 16 mM Chlorzoxazone and test samples were added to experimental groups; methanol:sterilized water at 1:1 ratio was added to control groups and DDTC was added to positive control groups,
(§5) Finally, cofactor 1 mM NADP^+, 10 mM G6P and 2 IU G6PD were added and reaction mixtures were transferred to pre-incubation 37° C. water bath for 1 mM and activity was measured after 30 min of reaction
(§6) At the end of reaction, 500 μl acetonitrile was added to stop the reaction followed by 5 g/mL 4-hydroxy-tobutamide after 1 mM incubation. The mixture was then centrifuged and 20 L of supernatant was diluted ten times with methanol/sterilized water and 5 L was used for LC/MS/MS analysis. […] The inhibition of CYP2E1 was then calculated by the following equation:

[3] = molecular target: cytochrome P450 2E1 (CYP2E1) (Homo sapiens, UniProt P05181); experiment: CYP2E1 High Throughput Inhibitor Screening Kit, cDNA synthesized microsomal CYP2E1 (MFC to HFC); settings: for Minimum Effective Dose: Table 3, minimum tested concentration (mg/L) × volume of human liver and intestine (3L)
Chain of cytochrome P450 2E1 (CYP2E1) (P05181 whole entry): as above
Source text: CYP2E1 High Throughput Inhibitor Screening Kit (BD Bioscience, USA) was used to screen the cytochrome P450 (CYP2E1) inhibitors from 22 Chinese medicine guiding drugs and 10 excipients and microsomal cytochrome P450 (CYP2E1) was synthesized from cDNA (BD Bioscience, USA). The principle of the screening kit is to measure the percentage of CYP2E inhibition, after adding the test sample to substrate MFC (7-Methoxy-4-trifluoromethyl coumarin) and cytochrome P450 (CYP2E1), by measuring the synthesis of standard CYP2E1 metabolite (HFC, 7-Hydroxy-4-trifluoromethyl coumarin) and use control HFC as baseline.
a. 149 μl NADPH-Cofactor Mix and 1 μl 20 mM DDTC were added to the #1 well in a 96-well plate and mixed thoroughly,
b. Add 100 μl Cofactor/acetonitrile mix to #2 to #12 wells, and well #1 to #8 are positive control. Well #9 and 10 are control and well #11 and #12 are blank,
c. […] Preparation of Experimental Groups: a. […] Transfer 50 μl from well #1 and #2 and added to well #3 and mixed thoroughly (triplicate for each sample), 3. Initiation and Termination of the Reaction: a. The 96-well plate was incubated at 37° C. for […], b. 100 μl of Enzyme/Substrate Mix was added to every well and mixed thoroughly except the blank wells, c. The 96-well plate was incubated at 37° C. for 40 min, d. 75 μl Stop Solution was added to every well and mixed thoroughly, e. Immediately add 100 μl Enzyme/Substrate Mix to blank wells and mixed thoroughly, f. Measure with a Fluoroskan Ascent FL (Thermo Electron Corporation, Finland) with excitation at 405 nm and emission at 538 nm, 4. The fluorescence was transverse into CYP 2E1 metabolite standard (HFC) concentration (pmol) and the percentage (%) of CYP 2E1 inhibition was calculated using control as baseline by following equation: […]

[4] = system: amidase; experiment: Mouse liver microsomal amidase, isoniazid to isonicotinic acid; assay type: biochemical
Source text: Mouse liver microsomes were used as the source of amidase, and isoniazid was used as the amidase metabolism drugs. quantitative isoniazid was catalyzed into metabolites isonicotinic acid (INA) by amidase, and was used as the index for measurement of the amidase activity for establishment of the platform for screening in vitro amidase activity inhibitors. The HPLC system includes a Shimadzu the LC-LOAD pump, 1 Shimadzu system control and a Shimadzu autosampler (Shimadzu Scientific Instrument, Japan). A C18 column (particle size 5 μm, inner diameter of 50×4.6 mm, 25 cm) containing 70% methanol and 30% ammonium formate (50 mM, pH=2.5) of the mobile phase for HPLC separation, and the experimental steps are outlined as follows:
(2) An aliquot of 150 μL mouse liver microsomal solution was added to 100 μL isoniazid solution in 35 μL 67 mM potassium phosphate buffer solution ([…], pH=7) with a final concentration at 3 mM, and then mixed thoroughly with 15 μL amidase inhibitor (deionized water was added in the control group). (3) Incubation at 37° C. water bath for 30 minutes. (4) An aliquot of 300 μL acetonitrile (ACN) was added and mixed thoroughly, and incubated for 6 minutes. (5) An aliquot of 30 μL perchloric acid was then mixed and incubated for 6 minutes. (6) The mixture was centrifuged at 13000 g for 6 minutes. (7) After centrifugation, 100 μL of the supernatant was injected into HPLC. (8) Methanol ammonium formate (50 mM, pH=2.5)=70:30 (V/V) was selected as the mobile phase, and the flow rate was controlled at […] and detected at 270 nm UV. […] The amidase inhibition % was then calculated using the following formula: […]

[5] = system: 129/sv mice; experiment: Mouse study of INH/RIF with oral Kaempferol, Mannitol, Saccharin, Sucralose, Dicalcium phosphate or Crospovidone; assay type: in vivo; settings: 3 weeks, in words
Source text: Animals were randomized into one of thirteen groups, each involving three treatments. […].
All mice were subjected to GSP test.

[6] = molecular target: CYP2E1 (Homo sapiens, UniProt P05181); experiment: Human liver microsomal CYP2E1, chlorzoxazone 6-hydroxylation; settings: human, human liver microsomes, pH 7.4, probe Chlorzoxazone;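 also: chlorzoxazone added as substrate, 6-hydroxychlorzoxazone formation quantified by LC/MS/MS after 30 min at 37 °C with NADP+ regenerating system, compared against solvent control without test sample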
Chain of CYP2E1 (P05181 whole entry): as above
Protocol: as §3, §4, §5, §6

[7] = system: Male SD (Sprague-Dawley) rats; experiment: Rat study of INH combined with DSF and/or BNPP (AST, ALT, histology, 8-iso-PGF2α, GSP, GEC); assay type: in vivo
Protocol: as §1, with “Galactose” for “galactose”
Animals were randomized into one of five groups, each involving three treatments. The first treatment involved either a BNPP injection of 25 mg/kg or a BNPP vehicle (VEH1) injection (saline). […] The second treatment involved injections of either 100 mg/kg DSF or DSF vehicle (VEH2, corn oil). DSF was dissolved in corn oil and i.p. injected at a volume of […]. The third treatment involved injections of INH (25 mg/kg) or INH vehicle (VEH3, saline). INH was dissolved in saline (0.9% NaCl), and i.p. injected at a volume of […]. The first treatment (BNPP or VEH1) was administered 30 minutes before the third treatment (INH or VEH3), and the second treatment (DSF or VEH2) was administered 15 minutes before the third treatment (INH or VEH3).
Galactose elimination capacity (GEC) test was performed 16 hours […] at the end of 21 days-treatment to measure the liver function.
After 21 days treatment, the rats were sacrificed with ether and blood samples collected in test tubes containing EDTA by dorsal aorta extract. The blood samples were centrifuged at 13,000 g for 15 min at 4° C. and plasma was aliquot into eppendorf tubes and stored at −80° C.
as §2
All isomers of PGF2α were dissolved or diluted in adequate amount of ethanol and after aliquot, stored at −70° C. As an internal standard, 10 ng of 8-iso-PGF2α-d4 was mixed with 0.5 ml of plasma in a glass tube and was then purified by a C18 Solid-Phase Extraction column (J. T. Baker, MA, USA). Sample eluants were evaporated under a stream of nitrogen and re-dissolved in 50 μl acetonitrile:water (15:85 v/v) solution followed by vortex for 30 seconds and 10 μl extract was further analyzed with a LC/MS/MS system.
Shimadzu system control and one Shimadzu autosampler (Shimadzu, Japan). HPLC purification of the extract by C18 column (mesh size 5-μm, diameter 50×2.1 mm) using 2 mM ammonium acetate/acetonitrile, ACN gradient as mobile phase (t=0 mM, 15% ACN; t=6 mM, 70% ACN; t=7 mM, 90% ACN; t=8 mM, 90% ACN; t=8.5 min, 15% ACN). […] Such HPLC system was connected to a triple stage quadrupole mass spectrometer (API3000, Applied Biosystem, Foster City, Calif., USA) and is equipped with a Turbo Ion Spray ionization source, and uses negative electrospray for ionization. Such spectrophotometer uses diffusion of standard solution of 200 ng/ml 8-iso-PGF2α or 8-iso-PGF2α-d4 to optimize the mode for multiple reaction monitoring (MRM).
All rats were subjected to GSP and GEC tests.

[8] = i.p. daily 49 days, PZA 500 mg/kg, BNPP 50 mg/kg
[9] = Table 6, minimum tested concentration (mg/L) × volume of human liver and intestine (3 L)

| SMILES | Minimum Effective Dose [2, 9] | Minimum Effective Dose [3] | Amidase inhibition ([4]; 1 uM) | Amidase inhibition ([4]; 10 uM) | Amidase inhibition ([4]; 100 uM) | other results |
| --- | --- | --- | --- | --- | --- | --- |
| NC(=O)c1cnccn1 [PZA, pyrazinamide] |  |  |  |  |  | plasma ALT activities [1, 8]: 91±11 IU/L; plasma AST activities [1, 8]: 179±10 IU/L; liver histopathology ([1]; seven weeks, in words): showed hepatocellular damage |
| COc1ccc([C@@H]2CC(=O)c3c(O)cc(O)cc3O2)cc1O [Hesperetin] | 17 mg | 33 mg | −40.5 ± 24.8% | 5.4 ± 2.5% | 19.0 ± 3.6% |  |
| CCCCC[C@H](O)CC(=O)CCc1ccc(O)c(OC)c1 [6-Gingerol] | 16 mg | 16 mg | −8.2 ± 9.0% | 0.5 ± 0.7% | 22.6 ± 3.4% |  |
| COc1c(O)cc2oc(Oc3ccc(O)cc3)cc(=O)c2c1O [Capillarisin] | 17 mg | 17 mg | −4.1 ± 8.1% | 18.2 ± 3.7% | 45.7 ± 4.2% | Inhibition of CYP 2E1 ([2]; 16.5 μM): 32.89 ± 2.46%; Inhibition of CYP 2E1 ([2]; 33 μM): 46.22 ± 2.65%; Inhibition of CYP 2E1 ([2]; 66 μM): 57.31 ± 1.31%; Inhibition of CYP 2E1 ([3]; 16.5 μM): 49.05%; Inhibition of CYP 2E1 ([3]; 66 μM): 76.12% |
| OC[C@H]1O[C@H](O[C@]2(CCl)O[C@H](CCl)[C@@H](O)[C@@H]2O)[C@H](O)[C@@H](O)[C@H]1Cl [Sucralose] |  |  |  |  |  | GSP values over treatment time [5]: remained constant; Minimum Effective Dose ([2]; Table 7): 22 mg; inhibition at 30 min, 16.5 µM [6]: 37.1 ± 2.8%; inhibition at 30 min, 33 µM [6]: 45.8 ± 4%; inhibition at 30 min, 66 µM [6]: 55.8 ± 2% |
| O=C(CCc1ccc(O)cc1)c1c(O)cc(O)cc1O [Phloretin] | 15 mg | 15 mg | 16.5 ± 14.3% | 9.8 ± 5.4% | 29.9 ± 8.1% |  |
| NNC(=O)c1ccncc1 [INH, isoniazid] |  |  |  |  |  | GEC values ([7]; 21 days): 3.4±0.6 mg/min·kg; plasma ALT activities ([7]; i.p. once daily 21 days): 52±3 IU/L; plasma AST activities ([7]; i.p. once daily 21 days): 129±10 IU/L; plasma concentrations of 8-iso-PGF2α ([7]; i.p. once daily 21 days): 0.151 ± 0.026 ng/mL; liver histopathology ([7]; three weeks, H&E, EM, in words): showed hepatocellular damage |
| O=C1NS(=O)(=O)c2ccccc21 [Saccharin] |  |  |  |  |  | GSP values over treatment time [5]: remained constant; Minimum Effective Dose ([2]; Table 7): 10 mg; inhibition at 30 min, 16.5 µM [6]: 29.4 ± 2.7%; inhibition at 30 min, 33 µM [6]: 51.2 ± 0.9%; inhibition at 30 min, 66 µM [6]: 78.5 ± 2.1% |
| O=C1c2c(O)cc(O)cc2O[C@H](c2ccc(O)c(O)c2)[C@H]1O [(+)-Taxifolin] |  | 17 mg | 36.8 ± 11.5% | 32.2 ± 5.8% | 36.4 ± 3.4% |  |
| O=c1c(-c2ccc(O)cc2)coc2c([C@@H]3O[C@H](CO)[C@@H](O)[C@H](O)[C@H]3O)c(O)ccc12 [Puerarin] |  | 23 mg | 40.9 ± 3.6% | 33.0 ± 3.3% | 17.9 ± 7.2% |  |
| O=C1C[C@@H](c2ccc(O)cc2)Oc2cc(O)cc(O)c21 [Narigenin] | 9 mg | 9 mg |  |  |  |  |
| O=C(O)c1ccc(O)c(O)c1 [Protocatechuic acid] |  | 8 mg | 11.5 ± 4.0% | 10.9 ± 2.0% | 15.7 ± 8.1% |  |
| O=C(O)c1cc(O)c(O)c(O)c1 [gallic acid] | 9 mg | 9 mg | 12.0 ± 5.5% | 20.0 ± 5.1% | −20.2 ± 26.5% |  |
| CC(Cc1ccc(O)c(O)c1)C(C)Cc1ccc(O)c(O)c1 (stereo not shown) [Nordihydroguaiaretic acid] | 17 mg | 17 mg |  |  |  |  |
